Measured values taken from article PMC6890839, “The Antimalarial Chloroquine Reduces the Burden of Persistent Atrial Fibrillation” (Frontiers in Pharmacology, 2019).

Test system: T1, Kir3.1 and Kir3.4 (IKACh)
T1 construct: gene KCNJ3; heterotetramer
Test: whole-cell patch clamp, HEK293, block of Ba-sensitive current
Format: cell-based
Details: -140 mV step from -20 mV holding; about 24 °C; bath pH 7.4, 50 mM KCl; pipette 0.1 mM GTP; Hill slope -0.48

## CCN(CC)CCCC(C)Nc1ccnc2cc(Cl)ccc12 (stereo not shown) [chloroquine]
  IC50: 1200 nM
